Measured values taken from patent US8395037B2, “Pharmaceutical compositions for treating/preventing motor organ diseases” (Mitsubishi Corporation, priority 2005, dated 2013).

How the values were obtained:
[1] = test system: osteoarthritis patient-derived chondrocytes; experiment: Cytotoxicity test (XTT method) on chondrocytes; assay type: cell-based, human; conditions: for Cell survival rate (%): relative to control (medium alone) = 100%
Procedure: Chondrocytes isolated from human articular cartilage tissues were used for cultured cells. After obtaining informed consent, cartilage tissues were collected from surgically-removed tissues from eight osteoarthritis patients. The collected tissues were sliced and then treated in a liquid low-glucose Dulbecco's modified Eagle's medium (DMEM, manufactured by Gibco Co.) containing 1.5 mg/ml collagenase B at 37° C. overnight, to isolate chondrocytes for culture. The cells were normally cultured in a culture flask (culture area: 25 cm^2), and in a polystyrene culture dish (diameter: 6 cm) for use in the experiments. The cell culture was performed using a DMEM medium added with inactivated fetal bovine serum (FBS, manufactured by TRACE Co.) at 10% volume of the medium, and also 2 mM L-glutamine, 25 mM HEPES, and penicillin and streptomycin at 100 units/ml, in either a CO2 incubator (normoxic condition) which was set at 5% CO2+95% air, or a low oxygen chamber (hypoxic condition) which was set at 1% O2+5% CO2+94% N2, at 37° C. under saturated humidity.
Influence of hydroxylated C60 fullerene on the survival rate of chondrocytes was evaluated by a cytotoxicity test (XTT method). Hydroxylated C60 fullerene (manufactured by Frontier Carbon Co.) was dissolved in polyethylene glycol to prepare a 10 mM stock, which was then stored in a dark place at −20° C. The concentration of hydroxylated C60 fullerene for the test was 1.0 μM, 10.0 μM, and 100.0 μM.
50 μl each of chondrocytes in the logarithmic growth phase were added into a 96-well microplate at the concentration of 5.0×10^5 cells/ml, and incubated in either a CO2 incubator (normoxic condition) or a low oxygen chamber (hypoxic condition) for 24 hours. Hydroxylated C60 fullerene was added into the 96-well microplate at each target concentration described above (final volume: 100 μl), and the cells were incubated for 48 hours or 96 hours. Then, the medium was replaced to remove hydroxylated C60 fullerene, and the cells were incubated for another 12 hours. To stain surviving cells, 50 μl XTT (2,3bis(2-methoxy-4-nitro-5-sulfophenyl)-5-[(phenylamino)carbonyl]-2H-tetrazolium hydroxide, inner salt) reagent was added to each well, and the cells were incubated for four hours. Immediately thereafter, the absorbance at 450 nm was measured with a plate reader and the cell survival rates were analyzed. The results are shown as survival rates. The survival rate of the control group in a medium alone without hydroxylated C60 fullerene was assumed to be 100%, and the survival rate of the hydroxylated C60 fullerene-administered groups is expressed as relative values against the control group.

[2] = test system: cultured chondrocytes; experiment: Chondrocyte-proliferation ability under cartilage degenerating factors; assay type: cell-based; conditions: cultured chondrocytes treated with IL-1β and H2O2
[3] = test system: proteoglycan; experiment: Proteoglycan production in cultured chondrocytes (western blotting); assay type: cell-based, human; conditions: chondrocytes treated with cartilage degenerating factors
Procedure: Chondrocytes prepared according to the above method and chondrocytes of the control groups were collected with a cell scraper, and centrifuged to remove the supernatant. Then, 0.5% Triton X-100 aqueous solution was added thereto, and ultrasonic disintegration was performed on ice for one minute, to obtain a protein extract. The concentrations of the respective protein solutions were measured, and each sample was placed on 5% to 10% gradient SDS-polyacrylamide electrophoresis gel at 100 ng/lane, and subjected to electrophoresis.
Proteins in the gel were transferred onto a polyvinylidene difluoride membrane (manufactured by Pharmacia Co.) using a semidry blotting apparatus (manufactured by Amersham). The membrane was blocked with 5% skim milk (manufactured by Morinaga Co.), and then treated with 5 μg/ml of anti-proteoglycan monoclonal antibodies (manufactured by Chemicon Co.) at room temperature for one hour. The membrane was washed with PBS containing 0.01% Tween-20 (hereunder, abbreviated as “TPBS”), and then treated with 5,000-fold-diluted peroxidase-labeled anti-mouse IgG antibodies (manufactured by Amersham) as secondary antibodies, at room temperature for one hour. […]

[4] = test system: MMP-3; experiment: MMP-3 concentration in synovial fluid of osteoarthritis model knee joints (ELISA); assay type: in vivo, rabbit; conditions: various concentrations, sequential measurement, versus control knees
Procedure: (§1) Sequential biochemical examinations of blood and synovial fluid were also performed (pre-administration and fourth- and eighth-week post-administration of water-solubilized fullerene). The observed biochemical examination items were (A) hepatic function (GOT and GPT), renal function (urea nitrogen and creatinine), and electrolytes (Na, K, and Cl), (B) extracellular matrix-degrading enzyme production ability (MMP-1, 3, and 13), and (C) cartilage matrix-synthesizing ability (proteoglycan). The items of (A) were measured by commercially available testing equipments and items of (B) and (C) were measured by ELISA method.

[5] = test system: MMP-13; experiment: MMP-13 concentration in synovial fluid of osteoarthritis model knee joints (ELISA); assay type: in vivo, rabbit; conditions: various concentrations, sequential measurement, versus control knees
Procedure: as §1

With hydroxylated C60 fullerene the “Cell survival rate (%)” value ([1]; 1.0 μM, 48 hour incubation) was 98.5 ± 6.5%, the “Cell survival rate (%)” value ([1]; 1.0 μM, 96 hour incubation) was 99.6 ± 3.8% and the “Cell survival rate (%)” value ([1]; 10.0 μM, 48 hour incubation) was 101.3 ± 5.8%. The “Cell survival rate (%)” value ([1]; 10.0 μM, 96 hour incubation) was 98.2 ± 2.6%, the “Cell survival rate (%)” value ([1]; 100.0 μM, 48 hour incubation) was 99.5 ± 4.2% and the “Cell survival rate (%)” value ([1]; 100.0 μM, 96 hour incubation) was 103.4 ± 2.2%. The Toxicity to chondrocytes ([1]; 1.0-100.0 μM, 48 or 96 hours) was “not to be toxic to chondrocytes”, the “Decrease of chondrocyte-proliferation ability” value [2] was “inhibited decrease of chondrocyte-proliferation ability” and the “Production of proteoglycan (western blotting)” value [3] was “the inhibition against the production of cartilage matrix, proteoglycan, due to the cartilage degenerating factors was inhibited”. For the same substance, the “Production of proteoglycan (western blotting)” value ([3]; listed as fullerene) was “restored”, the “MMP-3 concentration in synovial fluid” value [4] was “No remarkable difference” and the “MMP-13 concentration in synovial fluid” value [5] was “MMP-13 production inhibitory effect was observed”.
